Consider 2 compounds from patent US20220265817A1, “THERAPEUTIC COMPOSITIONS AND METHODS FOR TREATING HEPATITIS B” (priority 2017, published 2022).

Like-named read-outs stand apart in the source and are kept apart here.

In experiment [1] the test system is HBV rcDNA in AML12-HBV10 cells. The experiment is described as follows: AML12-HBV10 cell culture system, rcDNA quantitation using bDNA assay, MacSynergy II. Format: cell-based, mouse hepatocyte cell line. The note with it: for EC50: rcDNA, AML12-HBV10 cells, 48 hrs, read-out: Inhibitor EC50; for inhibition at 0.01 µM: Compound 3 0.010 μM; for inhibition at 0.02 µM: Compound 3 0.020 μM; for inhibition at 0.039 µM: Compound 3 0.039 μM; for inhibition at 0.078 µM: Compound 3 0.078 μM; for inhibition at 0.313 µM: Compound 3 0.313 μM; for inhibition at 0.625 µM: Compound 3 0.625 μM; for inhibition at 1.25 µM: Compound 3 1.250 μM. How it is done: In vitro combination studies were conducted using the method of Prichard and Shipman (Prichard M N, and Shipman C Jr., Antiviral Research, 1990, 14 (4-5), 181-205; and Prichard M N, et. al., MacSynergy II). The AML12-HBV10 cell line was developed as described in Campagna et al. (Campagna et. al., J. Virology, 2013, 87(12), 6931-6942). It is a mouse hepatocyte cell line stably transfected with the HBV genome, and which can express HBV pregenomic RNA and support HBV rcDNA (relaxed circular DNA) synthesis in a tetracycline-regulated manner. AML12-HBV10 cells were plated in 96 well tissue-culture treated microtiter plates in DMEM/F12 medium supplemented with 10% fetal bovine serum +1% penicillin-streptomycin without tetracycline and incubated in a humidified incubator at 37° C. and 5% CO2 overnight. […] The two inhibitors were tested both singly as well as in combinations in a checkerboard fashion such that each concentration of inhibitor A was combined with each concentration of inhibitor B to determine their combination effects on inhibition of rcDNA production. Following a 48 hour-incubation, the level of rcDNA present in the inhibitor-treated wells was measured using a bDNA assay (Affymetrix) with HBV specific custom probe set and manufacturer's instructions. […] Concurrently, the effect of inhibitor combinations on cell viability was assessed using replicate plates that were used to determine the ATP content as a measure of cell viability using the cell-titer glo reagent (Promega) as per manufacturer's instructions.

Experiment [2] relates to HBV rcDNA in HepDE19 cells. The experiment is described as follows: HepDE19 cell culture system, rcDNA quantitation using bDNA assay, MacSynergy II. The format is cell-based, human hepatoma cell line. The note with it: for AVERAGE % INHIBITION: GLS-4 0 μM. How it is done:
In vitro combination studies were conducted using the method of Prichard and Shipman (Prichard M N, and Shipman C Jr., Antiviral Research, 1990, 14 (4-5), 181-205; and Prichard M N, et. al., MacSynergy II). HepDE19 cell culture system is a HepG2 (human hepatocarcinoma) derived cell line that supports HBV DNA replication and cccDNA formation in a tetracycline (Tet)-regulated manner and produces HBV rcDNA and a detectable reporter molecule dependent on the production and maintenance of cccDNA (Guo et al 2007. J. Virol 81:12472-12484). HepDE19 (50,000 cells/well) were plated in 96 well collagen-coated tissue-culture treated microtiter plates in DMEM/F12 medium supplemented with 10% fetal bovine serum, 1% penicillin-streptomycin and 1 μg/ml tetracycline and incubated in a humidified incubator at 37° C. and 5% CO2 overnight. Next day, the cells were switched to fresh medium without tetracycline and incubated for 4 hrs at 37° C. and 5% CO2. […] The two inhibitors were tested both singly as well as in combinations in a checkerboard fashion such that each concentration of inhibitor A was combined with each concentration of inhibitor B to determine their combination effects on inhibition of rcDNA production. Following a 7 day-incubation of cells with compound combinations, the level of rcDNA present in the inhibitor-treated wells was measured using a Quantigene 2.0 bDNA assay kit (Affymetrix, Santa Clara, Calif.) with HBV specific custom probe set and manufacturers instructions. […] The RLU data from the single compound treated cells were analyzed using XL-Fit module in Microsoft Excel to determine EC50 values using a 4-parameter curve fitting algorithm. Concurrently, the effect of compounds on cell viability was assessed using replicate plates, plated at a density of 5,000 cells/well and incubated for 4 days, to determine the ATP content as a measure of cell viability using the cell-titer glo reagent (CTG; Promega Corporation, Madison, Wis.) as per manufacturer's instructions.
In vitro combination studies were conducted using the method of Prichard and Shipman (Prichard M N, Shipman C, Jr., Antiviral Res, 14, 181-205 (1990)). The HepDE19 cell line was developed as described in Guo et al. (Guo et al., J Virol, 81, 12472-12484 (2007)). It is a human hepatoma cell line stably transfected with the HBV genome, and which can express HBV pregenomic RNA and support HBV rcDNA (relaxed circular DNA) synthesis in a tetracycline-regulated manner. HepDE19 cells were plated in 96 well tissue-culture treated microtiter plates in DMEM/F12 medium supplemented with 10% fetal bovine serum+1% penicillin-streptomycin without tetracycline and incubated in a humidified incubator at 37° C. and 5% CO2 overnight. […] The two inhibitors were tested both singly as well as in combinations in a checkerboard fashion such that each concentration of inhibitor A was combined with each concentration of inhibitor B to determine their combination effects on inhibition of rcDNA production. Following a 48 hour-incubation, the level of rcDNA present in the inhibitor-treated wells was measured using a bDNA assay (Affymetrix) with HBV specific custom probe set and manufacturers instructions. […] Concurrently, the effect of inhibitor combinations on cell viability was assessed using replicate plates that were used to determine the ATP content as a measure of cell viability using the Cell-TiterGlo reagent (Promega) as per manufacturer's instructions.
In vitro combination studies were conducted using the method of Prichard and Shipman (1990) (Prichard M N, Shipman C, Jr. 1990. A three-dimensional model to analyze drug-drug interactions. Antiviral Res 14:181-205 AND Prichard M N. 1992. MacSynergy II, University of Michigan).

Setting [3] is: Hepatitis B virus, AML12HBV10, in Mus musculus, ETV μM: 0.075, 0.025, 0.008, 0.003, 0.001, 0.
Setting [4] is: Hepatitis B virus, AML12HBV10, in Mus musculus, SIRNA-NP μg/mL: 0.5, 0.167, 0.056, 0.019, 0.006, 0.
Setting [5] is: Hepatitis B virus, HepDE19, read-out: ADDITIVE INHIBITION
Setting [6] is: Hepatitis B virus, HepDE19, read-out: AVERAGE % INHIBITION (rcDNA).

With `CC[C@@H](C)NS(=O)(=O)c1ccc(F)c(C(=O)Nc2ccc(F)c(F)c2)c1` [Compound 3], the EC50 (commonly the concentration giving half of the maximal effect) turned out to be 250 nM in experiment [1] (Hepatitis B virus, AML12HBV10, in Mus musculus, 48 h); 231 nM in experiment [1]; 272 nM in experiment [2] (Hepatitis B virus, HepDE19, rcDNA, bDNA assay, DE19 cells, read-out: Inhibitor A EC50); 454 nM in experiment [2] (Hepatitis B virus, HepDE19, rcDNA by bDNA assay, single agent, read-out: INHIBITOR A EC50). Further, the values for the inhibition at 0.01 µM in experiment [1] (setting [3]) and in experiment [1] (setting [4]) were -3.19% and -1.98%, respectively. The inhibition (commonly the relative decrease from the control value, in per cent) at 0.02 µM is 0.62% in experiment [1] (setting [3]) and -20.5% in experiment [1] (setting [4]). The inhibition at 0.039 µM was 7.38% in experiment [1] (setting [3]) and -16.9% in experiment [1] (setting [4]). For the same compound, the inhibition at 0.078 µM in experiment [1] (setting [3]) is -1.81%; in experiment [1] (setting [4]), 20.1%. Also, the inhibition at 0.313 µM in experiment [1] (setting [3]) worked out at 71%; in experiment [1] (setting [4]), 59.4%. Moreover, the inhibition at 0.625 µM was found to be 80.8% in experiment [1] (setting [3]) and 79.9% in experiment [1] (setting [4]). Also, the inhibition at 1.25 µM in experiment [1] (setting [3]) stood at 86.7%; in experiment [1] (setting [4]) it was 88.1%. Also, the inhibition at 2.5 µM in experiment [1] (Hepatitis B virus, AML12HBV10, in Mus musculus, Compound 3 2.500 μM, ETV μM: 0.075, 0.025, 0.008, 0.003, 0.001, 0) is 90.5%; in experiment [1] (Hepatitis B virus, AML12HBV10, in Mus musculus, Compound 3 2.5 μM, SIRNA-NP μg/mL: 0.5, 0.167, 0.056, 0.019, 0.006, 0) it was 89.7%. The “AVERAGE % INHIBITION” value in experiment [2] (COMPOUND 3 0.040 μM) was 11.14%; in experiment [2] (COMPOUND 3 0.110 μM) it was 19.99%; in experiment [2] (COMPOUND 3 0.330 μM), 56.68%; in experiment [2] (COMPOUND 3 1.000 μM), 86.87%; in experiment [2] (COMPOUND 3 3.000 μM) it was 94.49%.
`CC(C)OC(=O)OCOP(=O)(CO[C@H](C)Cn1cnc2c(N)ncnc21)OCOC(=O)OC(C)C.O=C(O)/C=C/C(=O)O` [TDF, tenofovir disoproxil fumarate, reference compound]: the “SYNERGY PLOT (99.9%) […]. 96%” value in experiment [2] is 0. In experiment [2] (Hepatitis B virus, HepDE19), the inhibition at 0.004 µM is -5.27%, the inhibition at 0.008 µM amounted to 0.67%, the inhibition at 0.016 µM stood at 2.82% and the inhibition at 0.031 µM worked out at 6.57%. The inhibition at 0.063 µM in experiment [2] (Hepatitis B virus, HepDE19) came to 41.7%. In experiment [2] (setting [5]), the inhibition at 0.003906 µM is -5.27%, the inhibition at 0.00781 µM was 0.67%, the inhibition at 0.01563 µM came out at 2.82% and the inhibition at 0.03125 µM turned out to be 6.57%. Also, in experiment [2] (setting [5]), the inhibition at 0.0625 µM turned out to be 41.7%, the inhibition at 0.125 µM turned out to be 66.1%, the inhibition at 0.25 µM came out at 81.5% and the inhibition at 0.5 µM came out at 90.8%. For the same compound, in experiment [2] (setting [5]), the inhibition at 1 µM was found to be 94.5%. In experiment [2] (setting [6]), the inhibition at 0.125 µM was determined as 66.1%, the inhibition at 0.25 µM came out at 81.5%, the inhibition at 0.5 µM was determined as 90.8% and the inhibition at 1 µM came out at 94.5%. Besides, in experiment [2] (Hepatitis B virus, HepDE19, read-out: Inhibitor B EC50), the EC50 came out at 89 nM. The EC50 in experiment [2] (Hepatitis B virus, HepDE19, rcDNA by bDNA assay, single agent, read-out: INHIBITOR B EC50) stood at 88 nM.
